Test results from PubChem BioAssay AID1918939 (Molecular Pharmacology Branch, DTP, NCI, 2023).

Test system: 653999-131-R-J2-PDC complex spheroid viability
Assay: Anticancer human tumor 653999-131-R-J2-PDC patient-derived lung adenocarcinoma cell line growth inhibition
Conditions: for IC50: curve of first compound; for viability, T/C: stronger effect = lower value
In short: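 Drug combinations with the LSD1 inhibitor iadademstat tested on tumor cells co-cultured as spheroids with endothelial cells and mesenchymal stem cells. Concentrations descended in half-log increments from clinical Cmax or 10 microM.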

[1] = second compound 0.1 µM, first compound 0.00949 µM
[2] = second compound 0.1 µM, first compound 0.03 µM
[3] = second compound 0.1 µM, first compound 0.0949 µM
[4] = second compound 0.1 µM, first compound 0.3 µM
[5] = second compound 0.1 µM, first compound 0.949 µM
[6] = second compound 0.1 µM, first compound 3 µM
[7] = second compound 0.316 µM, first compound 0.00949 µM
[8] = second compound 0.316 µM, first compound 0.03 µM
[9] = second compound 0.316 µM, first compound 0.0949 µM
[10] = second compound 0.316 µM, first compound 0.3 µM
[11] = second compound 0.316 µM, first compound 0.949 µM
[12] = second compound 0.316 µM, first compound 3 µM
[13] = second compound 1 µM, first compound 0.00949 µM
[14] = second compound 1 µM, first compound 0.03 µM
[15] = second compound 1 µM, first compound 0.0949 µM
[16] = second compound 1 µM, first compound 0.3 µM
[17] = second compound 1 µM, first compound 0.949 µM
[18] = second compound 1 µM, first compound 3 µM
[19] = second compound 3.16 µM, first compound 0.00949 µM
[20] = second compound 3.16 µM, first compound 0.03 µM
[21] = second compound 3.16 µM, first compound 0.0949 µM
[22] = second compound 3.16 µM, first compound 0.3 µM
[23] = second compound 3.16 µM, first compound 0.949 µM
[24] = second compound 3.16 µM, first compound 3 µM
[25] = second compound 10 µM, first compound 0.00949 µM
[26] = second compound 10 µM, first compound 0.03 µM
[27] = second compound 10 µM, first compound 0.0949 µM
[28] = second compound 10 µM, first compound 0.3 µM
[29] = second compound 10 µM, first compound 0.949 µM
[30] = second compound 10 µM, first compound 3 µM
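Also: spheroids exposed to agents for seven days before readout.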

Row | Structure (SMILES) | IC50 (second compound 0.1 µM) [nM] | IC50 (second compound 0.316 µM) [nM] | IC50 (second compound 1 µM) [nM] | IC50 (second compound 3.16 µM) [nM] | IC50 (second compound 10 µM) [nM] | viability, T/C [1] [%] | viability, T/C [2] [%] | viability, T/C [3] [%] | viability, T/C [4] [%] | viability, T/C [5] [%] | viability, T/C [6] [%] | viability, T/C [7] [%] | viability, T/C [8] [%] | viability, T/C [9] [%] | viability, T/C [10] [%] | viability, T/C [11] [%] | viability, T/C [12] [%] | viability, T/C [13] [%] | viability, T/C [14] [%] | viability, T/C [15] [%] | other results
1 | NS(=O)(=O)OCC1CC(n2ccc3c(NC4CCc5ccccc54)ncnc32)CC1O (stereo not given) + NC1CC1c1ccc(-c2cccc(O)c2)cc1 | > 3000 | > 3000 | > 3000 | > 3000 | > 3000 | 94.2 | 97.9 | 107 | 74.1 | 64.9 | 60 | 91.8 | 95.7 | 118 | 81.4 | 66 | 61.6 | 94.4 | 96.4 | 113 | viability, T/C [16]: 72.7%; viability, T/C [17]: 64.5%; viability, T/C [18]: 60.7%; viability, T/C [19]: 83.2%; viability, T/C [20]: 102%; viability, T/C [21]: 132%; viability, T/C [22]: 64.9%; viability, T/C [23]: 64.7%; viability, T/C [24]: 61.1%; viability, T/C [25]: 94.1%; viability, T/C [26]: 105%; viability, T/C [27]: 132%; viability, T/C [28]: 68.8%; viability, T/C [29]: 61.8%; viability, T/C [30]: 48.2%
2 | Nc1ccccc1NC(=O)c1ccc(CNC(=O)OCc2cccnc2)cc1 + NC1CC1c1ccc(-c2cccc(O)c2)cc1 | 352 | 245 | 293 | 213 | 177 | 89 | 101 | 81.5 | 52.9 | 22.6 | 1.35 | 93 | 85.8 | 64.3 | 49.5 | 20.4 | 1.41 | 81.2 | 68.5 | 77.9 | viability, T/C [16]: 48%; viability, T/C [17]: 13.1%; viability, T/C [18]: 0.97%; viability, T/C [19]: 84.6%; viability, T/C [20]: 74.4%; viability, T/C [21]: 69.4%; viability, T/C [22]: 42.1%; viability, T/C [23]: 15.8%; viability, T/C [24]: 1.74%; viability, T/C [25]: 76.1%; viability, T/C [26]: 82.2%; viability, T/C [27]: 57.1%; viability, T/C [28]: 42.3%; viability, T/C [29]: 13.3%; viability, T/C [30]: 0.95%
3 | O=C(C=Cc1cccc(S(=O)(=O)Nc2ccccc2)c1)NO + NC1CC1c1ccc(-c2cccc(O)c2)cc1 | > 3000 | 296 | 293 | 294 | 265 | 99.8 | 109 | 88.8 | 48.7 | 8.83 | 99.3 | 92.8 | 99 | 87.9 | 45.2 | 9.89 | 93.6 | 78.8 | 94.4 | 92.4 | viability, T/C [16]: 49.1%; viability, T/C [17]: 8.18%; viability, T/C [18]: 89%; viability, T/C [19]: 88.2%; viability, T/C [20]: 101%; viability, T/C [21]: 89.8%; viability, T/C [22]: 45.8%; viability, T/C [23]: 7.35%; viability, T/C [24]: 94.9%; viability, T/C [25]: 83.5%; viability, T/C [26]: 88.6%; viability, T/C [27]: 83.3%; viability, T/C [28]: 46%; viability, T/C [29]: 9.36%; viability, T/C [30]: 82.4%
